# Test results: publication PMC7146544, “Dual Plasmepsin-Targeting Antimalarial Agents Disrupt Multiple Stages of the Malaria Parasite Life Cycle” (Cell Host & Microbe, 2020)
# Several values for one entry are separate records, joined by “and”; a condition that tells them apart may be missing. Equal entries are not always repeated. Where two headings read alike, the source gives them in different places.
# Tests used:
# P. falciparum [1] = assay: P. falciparum asexual blood-stage growth inhibition (LDH or SYBR Green flow cytometry); format: cell-based, Plasmodium falciparum
# Protocol: For High Throughput Screening (HTS) of compounds we used the lactate dehydrogenase (LDH) assay to detect parasitemia ([Makler et al., 1993], [Oduola et al., 1997]) formatted in a 384 well assay using an Echo555 (Labcyte). The P. falciparum assay was conducted with minor modifications ([Gamo et al., 2010]). Briefly, an inoculum of parasitized red blood cells at 0.7% parasitemia and 2% hematocrit in RPMI-1640, 5% AlbuMAX, 2% d-sucrose, 0.3% glutamine and 150 μM hypoxanthine was used for the assay. Assay plates (Greiner #781098, 384 well, white, tissue culture treated) were prepared by dispensing 1 μl of compound from master plates at 20 μM (10% DMSO stock) into 9ul pre-dispensed growth media in each well. The parasite inoculum (30 μl) was dispensed into plates containing compounds using a Multidrop Combi dispenser (Thermo Scientific). Final assay volume was 40 μl and final compound concentration was 500 nM. The positive growth control was 0.25% DMSO and the negative growth control was 100 nM chloroquine. Plates were incubated at 37 °C for 72 h in an atmosphere of […]. Following 72 h growth, plates were sealed with parafilm and frozen at −80 °C overnight. Plates were thawed at room temperature for at least 4 h prior to LDH activity being measured. 45 μl of fresh LDH reaction mix (174 mM sodium l-lactate, 214 μM 3-acetyl pyridine adenine dinucleotide (APAD), 270 μM Nitro Blue tetrazolium chloride (NBT), 4.35 U ml-1 diaphorase, 0.7% Tween 20, 100 mM Tris-HCl pH 7.5) was dispensed into each well using a Multidrop Combi dispenser. Plates were shaken to ensure mixing and absorbance at 650 nm was measured in an EnVision (PerkinElmer) plate reader after 30 min of incubation at room temperature. Data were normalized to percent growth inhibition using positive and negative controls and analyzed using Dotmatics 5.3 and Spotfire 7.11.1 (Tibco) software.
# All wells were backfilled with DMSO to 45 nL such that this remained constant (0.1% DMSO). The positive growth control was 0.1% DMSO and the negative growth control was 100 nM chloroquine. Parasite inoculum (40 μl) was dispensed into plates containing compounds as described above. All other culture and lactate dehydrogenase (LDH) reaction methods are as described previously ([Makler et al., 1993], [Oduola et al., 1997]).
# (§1) After 72 h incubation at 37°C each well was fixed at room temperature for 30 min with 50 μL of 0.25% glutaraldehyde (ProSciTech) diluted in PBS. Following centrifugation at 1200 rpm for 1 min, supernatants were discarded and parasites were stained with 50 μL of 5X SYBR Green (Invitrogen) diluted in PBS. 50,000 cells were counted by flow cytometry using a Cell Lab Quanta SC – MPL Flow Cytometer (Beckman Coulter) ([Bacon et al., 2007]). Growth was expressed as a percentage of the parasitemia obtained using a vehicle control. All samples were tested in triplicate. EC50 values were determined using GraphPad Prism.
# [2] = test system: WM5 and 4 resistant P. falciparum; assay: microbe, parasite or virus in culture; format: cell-based, Plasmodium falciparum
# Protocol: as §1
# The parent and resistant lines were then cloned by limiting dilution, the EC50 for each line was determined and genomic DNA was purified from clonal parasites (QIAGEN Blood and Tissue Kit).
# [3] = biological target: T1, P. falciparum aspartic protease, PMV (Plasmodium falciparum, UniProt Q8I6Z5); assay: Peptide cleavage (FRET) assay, PMV; format: biochemical; conditions: calculated from IC50 with Cheng-Prusoff equation
# T1 construct: made in house
# T1 sequence (Q8I6Z5 whole entry): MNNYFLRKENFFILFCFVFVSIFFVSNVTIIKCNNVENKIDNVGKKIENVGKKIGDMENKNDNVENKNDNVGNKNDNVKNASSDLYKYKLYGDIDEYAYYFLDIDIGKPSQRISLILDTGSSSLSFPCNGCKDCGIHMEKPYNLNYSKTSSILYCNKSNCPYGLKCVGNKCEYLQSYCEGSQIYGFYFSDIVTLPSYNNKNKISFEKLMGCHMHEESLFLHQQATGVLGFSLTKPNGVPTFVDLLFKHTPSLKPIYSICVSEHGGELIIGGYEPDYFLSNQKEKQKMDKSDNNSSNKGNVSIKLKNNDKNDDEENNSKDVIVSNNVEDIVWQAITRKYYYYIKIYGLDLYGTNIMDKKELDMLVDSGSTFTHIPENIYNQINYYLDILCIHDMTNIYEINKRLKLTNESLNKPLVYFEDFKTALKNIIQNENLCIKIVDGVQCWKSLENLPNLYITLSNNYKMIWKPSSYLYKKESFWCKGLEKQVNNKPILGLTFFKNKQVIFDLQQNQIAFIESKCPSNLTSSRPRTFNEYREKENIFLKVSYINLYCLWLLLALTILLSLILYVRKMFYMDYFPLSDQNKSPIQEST
# HepG2 cells = assay: EC50 for HepG2 cells; format: cell-based; conditions: Homo sapiens
# 3D7 parasite cultures = assay: Time of drug killing; format: cell-based, Plasmodium falciparum; conditions: 80nM WM4, 40nM WM5, 5nM WM382, added to early rings
# Protocol: 3D7 parasite cultures were synchronized using 5% sorbitol (Sigma) twice at 46 h intervals then again when the culture was a mix of late schizonts and early rings. […] The parasitemia of each culture was quantitated every 8 h for 48 h by collecting 50 μL samples for counting by flow cytometry (as previously described). The developmental stage of the parasites was confirmed at each time point by microscopic examination of Giemsa stained thin blood films. Media and compound were replaced at the 32 h time point.
# P. berghei [4] = assay: Peters' 4-day suppressive test for P. berghei infection in mice; format: in vivo, Plasmodium berghei; conditions: intraperitoneal, 20 mpk q.d., 4 days, Swiss mice
# Protocol: For results shown in Figure 1 A male Swiss mice were infected intraperitoneally (IP) with 1 × 10^6 P. berghei ANKA-parasitised red blood cells withdrawn from a previously infected donor mouse. Test compounds were prepared in a vehicle consisting of 10% DMSO/90% Solutol (5% Solutol® HS-15 in 0.9% saline). […] Peripheral blood samples were taken 24 h after administration of the last dose, and parasitemia was measured by microscopic analysis of Giemsa-stained blood smears. Parasitemia values were averages for 6 mice per group and are expressed as percent parasitemia. For results shown in Figure 4A ‘donor’ female Swiss mice were infected intraperitoneally (IP) with blood stage P. berghei parasites constitutively expressing GFP (P. berghei ANKA GFPcon 259cl2 ([Franke-Fayard et al., 2004]). Three days later, groups of 4 ‘acceptor’ Swiss mice were infected intravenously (IV) with 1 × 10^7 parasitised erythrocytes from the ‘donor’ mice. Two h post infection, experimental mice (4 per cohort) were left untreated (control mice) or treated orally on 4 consecutive days with test drugs formulated in 20% DMSO/60% PG/20% water (v/v/v) or chloroquine dissolved in water. […] Peripheral blood samples were taken 12 h after the last treatment, and parasitemia measured by flow cytometry (proportion of GFP-positive cells in 100,000 recorded events using FACSCalibur, BD) and microscopic analysis of Giemsa-stained blood smears. Parasitemia values were averages for 4 mice per group and are expressed as percent parasitemia.
# [5] = Pharmacokinetic attributes (no method given); conditions: in vivo
# [6] = biological target: T2, recombinant PMX protein (rPMX) (Plasmodium falciparum, UniProt Q8IAS0)
# T2 sequence (Q8IAS0 222-573): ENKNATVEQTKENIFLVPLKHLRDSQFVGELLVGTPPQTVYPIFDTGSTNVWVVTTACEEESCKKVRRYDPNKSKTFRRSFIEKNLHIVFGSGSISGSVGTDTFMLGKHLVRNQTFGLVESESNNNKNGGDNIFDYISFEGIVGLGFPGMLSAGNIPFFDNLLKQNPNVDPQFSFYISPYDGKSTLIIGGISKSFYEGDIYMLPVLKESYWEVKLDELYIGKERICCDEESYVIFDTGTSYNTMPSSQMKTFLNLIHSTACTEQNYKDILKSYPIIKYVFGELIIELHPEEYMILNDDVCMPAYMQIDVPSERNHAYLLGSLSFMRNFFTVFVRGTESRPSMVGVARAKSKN
# Protocol: (§2) All wells were backfilled to 200 nL DMSO such that it remains constant across the assay plates (1% final). IC50 values were calculated by Dotmatics 5.3 and Spotfire 7.11.1 software using a nonlinear regression four-parameter fit analysis. The equation used is sigmoidal dose response (variable slope), Y = bottom + (top − bottom)/(1+10((logEC50 − X) × Hill Slope)). Compound Ki values were calculated from the IC50s using the Cheng-Prusoff equation, Ki = IC50/(1 + [S]/Km).
# (§3) All compound potency assays were conducted in 20 μl total volume. For each assay, 10 μl of recombinant enzymes in respective assay buffers (Table) were dispensed into compound containing assay plates using a Multidrop Combi dispenser and allowed to incubate for 15 min. The reactions were started with a further 10 μl addition of FRET peptide substrates and reactions incubated at 37 °C for various times (Table).Samples were excited at 340 nm and fluorescence emission measured at 492 nm using an Envision fluorescence plate reader (Perkin-Elmer).
# [7] = biological target: T2, recombinant PMX protein (rPMX); assay: biochemical
# Protocol: as §2, §3
# [8] = test system: protein processing by PMIX and PMX in P. falciparum; assay: Processing inhibition assays (immunoblot of merozoites and supernatants); format: cell-based, Plasmodium falciparum; conditions: E64 10 μM, WM4 40 nM, WM382 2.5 nM
# Protocol: Processing inhibition assays were performed as previously described ([Boyle et al., 2010]). Synchronized late trophozoite/early schizont cultures to which protease inhibitors had already been added, were passed over LD magnetic columns (Miltenyi Biotech) to remove uninfected erythrocytes. The cysteine protease inhibitor E64 (Sigma) was used at 10 μM. […] A control dish without any protease inhibitor was also included. Parasites were eluted from columns with complete RPMI 1640 culture medium to which the appropriate inhibitor at the same concentration had been added. Eluted parasites were adjusted to 5x10^6 schizonts/mL and 150 ul added per well of a 96-well flat-bottomed culture dish. […] Parasites from each condition were spun at 10000 g/10 min so that merozoite and supernatant fractions could be separately collected. Proteins from both fractions were extracted with Reducing sample buffer and separated on 4%–12% or 3%–8% acrylamide gels (NuPAGE, Invitrogen).
# P. falciparum 3D7 = assay: Ring stage survival assay for artesunate; format: cell-based, Plasmodium falciparum; conditions: 3D7, 700 nM artesunate 6 h, then 66 h drug-free
# Protocol: The method for determining sensitivity to artesunate was as described ([Kite et al., 2016]). Parasites were synchronized twice with 5% sorbitol at 46 h intervals and again when they were a mixture of schizonts and early rings. Triplicate 1 mL cultures were set up in 24 well plates (Falcon) at 0.5% parasitemia and 2% hematocrit with either 700 nM artesunate (Sigma) or 0.1% DMSO vehicle control. Following 6 h incubation, the cells were washed and incubated in drug-free media for a further 66 h. A 50 μL sample of each culture was fixed with 0.25% glutaraldehyde and stained with 5X SYBR then parasitemia was determined by flow cytometry. Percentage survival is parasitemia relative to vehicle treated parasites.
# The percentage survival of all parasite lines was high in our experiments (∼5% for 3D7) was high compared to that described previously ([Kite et al., 2016]) most likely because we used a FACS based method was used for detection and quantitation. However, we were clearly able to distinguish the resistant CAM3 R539T line from the sensitive CAM3 Rev and 3D7 parasite lines.
# Dd2 parasites = format: cell-based, Plasmodium falciparum; conditions: inocula 10^5 to 10^9 parasites, up to 90 days
# From the text: Each experiment was monitored by weekly microscopic examination of thin blood films. Media and compound were replaced three times each week.
# P. berghei [9] = assay: Dose ranging test for P. berghei infection in mice; format: in vivo, Plasmodium berghei; conditions: chloroquine 10 mpk oral q.d. 4 days
# Protocol: Control mice were treated orally with chloroquine for 4 days under q.d. dosing regimen at 10 mpk/day. From day 2 to 30 post infection, parasitemia was measured daily by flow cytometry and microscopy, as described above. Survival of animals to day 30 post infection, with no detectable parasites in the peripheral blood, were considered to be cured (i.e., 100% efficacy).
# P. falciparum [10] = assay: P. falciparum humanized NOD-scid IL2R_null mouse model; conditions: chloroquine 50 mpk oral q.d. 4 days from day 3
# Protocol: Compounds were tested in the murine P. falciparum SCID model ([Angulo-Barturen et al., 2008]). […] The mice were intravenously infected with 2 × 10^7 P. falciparum Pf3D7-infected erythrocytes (day 0) ([Angulo-Barturen et al., 2008]). On day 3 after infection, mice were randomly allocated to treatments that were administered once a day for 4 consecutive days (n = 3 mice) by oral gavage at 10 mL/kg. Parasitemia was measured by microscopy. Chimerism was monitored by flow cytometry using anti-murine erythrocyte TER119 monoclonal antibody (PharMingen, San Diego, CA) and SYTO-16 and then analyzed by flow cytometry in serial 2 μL blood samples taken every 24 h until assay completion.
# [11] = 3D7 parasite line, asexual blood stage, read-out: EC50, inhibition of P. falciparum growth
compound,measurement,setting,value
CC(C)CC(c1ccc(C(F)(F)F)c(C(=O)N2Cc3nccnc3C2)c1)N1C(=N)NC(CC2CC2)(c2ccccc2)CC1=O (racemic) [WM5],EC50,"P. falciparum [1]; Plasmodium falciparum, Figure 2C, mean ± SD, three experiments, read-out: EC50 P. falciparum",0.0093 ± 0.0027 µM
same,EC50,"[2]; Plasmodium falciparum, 3D7, read-out: EC50, 3D7, parental line 3D7",0.0135 ± 0.00078 µM
same,EC50,"[2]; Plasmodium falciparum, 3D7, read-out: EC50, 3D7-WM4.1, WM4-resistant line 3D7-WM4.1",0.203 ± 0.00723 µM
same,EC50,"[2]; Plasmodium falciparum, 3D7, read-out: EC50, 3D7-WM4.2, WM4-resistant line 3D7-WM4.2, Figure S1",0.144 ± 0.0466 µM
same,EC50,"[2]; Plasmodium falciparum, 3D7, read-out: EC50, 3D7-WM5.1, WM5-resistant line 3D7-WM5.1",0.172 ± 0.00695 µM
same,EC50,"[2]; Plasmodium falciparum, 3D7, read-out: EC50, 3D7-WM5.2, WM5-resistant line 3D7-WM5.2, Figure S1",0.118 ± 0.0047 µM
same,EC50,"[2]; Plasmodium falciparum, 3D7, read-out: EC50, 3D7-WM5.3, WM5-resistant line 3D7-WM5.3, Figure S1",0.0518 ± 0.0197 µM
same,fold resistance of 3D7-WM5.1 compared with 3D7,[2]; printed as X in Figure 1E,13 fold
same,EC50,"[2]; read-out: EC50, 3D7-WM4.1, WM4-resistant line 3D7-WM4.1",0.107 ± 0.0022 µM
same,EC50,"[2]; read-out: EC50, 3D7-WM5.1, WM5-resistant line 3D7-WM5.1",0.172 µM and 0.117 µM
same,EC50,"[2]; read-out: EC50, 3D7, parental line 3D7",0.0111 ± 0.0037 µM
same,Ki,[3],3.3 ± 0.54 µM
same,EC50,HepG2 cells,17.9 ± 2 µM
same,stage of arrest of blood-stage development,3D7 parasite cultures,arrested at late schizont stage
same,in vivo activity against P. berghei infection,P. berghei [4],partial efficacy
same,pharmacokinetic attributes,[5],did not have desirable pharmacokinetic attributes
same,Fold Selectivity PMX v PMV,[6],"1,755 fold"
same,IC50,[7],0.00302 µM
same,Ki,[7],0.0019 ± 0.0006 µM
"CC(C)C[C@H](NC(=O)[C@H]1O[C@@H]1C(=O)O)C(=O)NCCCCN=C(N)N [E64, reference compound]",AMA1 processing in merozoites,[8],not affected
same,ASP processing,[8],ASP was processed
same,MTRAP processing,[8],did not inhibit its processing
same,PMIX processing in parasites,[8],not inhibited
same,RAP1 processing,[8],Two processed forms of RAP1 (p82 and p69) are detected
same,RON3 processing,[8],did not block processing
same,"Rh1 processed fragments, release into the supernatant",[8],the processed fragments were released into the supernatant
CC(NC(=O)c1cccc(C(c2ccccc2)N2C(=N)NC(C)(C(C)C)CC2=O)c1)c1ccccc1 (stereo not shown) [R-WM4],EC50,P. falciparum [1]; [11],0.0046 µM
CC(C)CC(c1ccc(C(F)(F)F)c(C(=O)N2Cc3nccnc3C2)c1)N1C(=N)NC(CC2CC2)(c2ccccc2)CC1=O (stereo not shown) [R-WM5],EC50,P. falciparum [1]; [11],0.01 µM
CC(NC(=O)c1cccc(C(c2ccccc2)N2C(=N)NC(C)(C(C)C)CC2=O)c1)c1ccccc1 (stereo not shown) [S-WM4],EC50,P. falciparum [1]; [11],0.44 ± 0.113 µM
CC(C)CC(c1ccc(C(F)(F)F)c(C(=O)N2Cc3nccnc3C2)c1)N1C(=N)NC(CC2CC2)(c2ccccc2)CC1=O (stereo not shown) [S-WM5],EC50,P. falciparum [1]; [11],0.688 ± 0.218 µM
C[C@H]1[C@H](OC(=O)CCC(=O)O)O[C@@H]2O[C@@]3(C)CC[C@H]4[C@H](C)CC[C@@H]1[C@@]24OO3 [artesunate],"percentage survival, ring stage survival assay",P. falciparum 3D7,~5%
O=C1C(O)=C([C@H]2CC[C@H](c3ccc(Cl)cc3)CC2)C(=O)c2ccccc21 [atovaquone],"selection of resistant parasites, time to resistance",Dd2 parasites,Parasites resistant to atovaquone were selected
"CCN(CC)CCCC(C)Nc1ccnc2cc(Cl)ccc12 (stereo not shown) [chloroquine, reference compound]",day post-infection on which parasites were detectable,P. berghei [9],10 days
same,day by which mice were cleared of parasitemia,P. falciparum [10],≤ 7 days
